This is an account of results in publication PMC6177136, “Hybrid topoisomerase I and HDAC inhibitors as dual action anticancer agents” (PLoS ONE, 2018).

For orientation: IC50 means the midpoint of a concentration-inhibition curve. As usually defined, the IC80 is the concentration at which the effect reaches the 80% level.

For one test, the system named is A2780. The experiment in a line: Cytotoxicity assay (SRB, 72 h) A2780. The note with it: Homo sapiens, A2780, read-out: IC50 ± SD A2780. It is filed as cell-based, Human.
In a further test the test system is Capan 1. The experiment in a line: Cytotoxicity assay (SRB, 72 h) Capan 1. In kind it is cell-based, Human. Conditions: Homo sapiens, CAPAN-1, read-out: IC50 ± SD Capan 1.
A further test concerns the target HDAC6 (Homo sapiens, UniProt Q9UBN7). Briefly: HDAC profiling HDAC6. It is filed as biochemical. Conditions: purified isoform, 10 concentrations from 10 μM, triplicate.
Another test deals with HDAC2 (Homo sapiens, UniProt Q92769). The experiment in a line: HDAC profiling HDAC2. The note with it: purified isoform, 10 concentrations from 10 μM, triplicate. It is filed as biochemical.
Sequence of HDAC2 (Q92769 whole entry, canonical isoform): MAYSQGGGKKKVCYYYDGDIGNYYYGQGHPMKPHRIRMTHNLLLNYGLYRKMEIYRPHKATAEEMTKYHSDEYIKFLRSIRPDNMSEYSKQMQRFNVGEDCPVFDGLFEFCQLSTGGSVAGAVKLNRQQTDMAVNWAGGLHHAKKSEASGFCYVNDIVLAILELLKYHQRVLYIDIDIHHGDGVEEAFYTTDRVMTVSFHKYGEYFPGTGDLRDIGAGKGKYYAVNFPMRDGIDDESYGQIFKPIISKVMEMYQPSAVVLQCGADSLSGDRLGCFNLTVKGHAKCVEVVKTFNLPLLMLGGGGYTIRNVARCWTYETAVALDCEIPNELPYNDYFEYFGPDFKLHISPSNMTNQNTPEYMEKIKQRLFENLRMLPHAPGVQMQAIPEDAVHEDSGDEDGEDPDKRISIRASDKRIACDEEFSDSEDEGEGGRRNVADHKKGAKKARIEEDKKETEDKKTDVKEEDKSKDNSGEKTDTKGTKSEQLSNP
A further test deals with HDAC10 (Homo sapiens, UniProt Q969S8). The experiment in a line: HDAC profiling HDAC10. In kind it is biochemical. Conditions: purified isoform, 10 concentrations from 10 μM, triplicate.
Sequence of HDAC10 (Q969S8 whole entry, canonical isoform): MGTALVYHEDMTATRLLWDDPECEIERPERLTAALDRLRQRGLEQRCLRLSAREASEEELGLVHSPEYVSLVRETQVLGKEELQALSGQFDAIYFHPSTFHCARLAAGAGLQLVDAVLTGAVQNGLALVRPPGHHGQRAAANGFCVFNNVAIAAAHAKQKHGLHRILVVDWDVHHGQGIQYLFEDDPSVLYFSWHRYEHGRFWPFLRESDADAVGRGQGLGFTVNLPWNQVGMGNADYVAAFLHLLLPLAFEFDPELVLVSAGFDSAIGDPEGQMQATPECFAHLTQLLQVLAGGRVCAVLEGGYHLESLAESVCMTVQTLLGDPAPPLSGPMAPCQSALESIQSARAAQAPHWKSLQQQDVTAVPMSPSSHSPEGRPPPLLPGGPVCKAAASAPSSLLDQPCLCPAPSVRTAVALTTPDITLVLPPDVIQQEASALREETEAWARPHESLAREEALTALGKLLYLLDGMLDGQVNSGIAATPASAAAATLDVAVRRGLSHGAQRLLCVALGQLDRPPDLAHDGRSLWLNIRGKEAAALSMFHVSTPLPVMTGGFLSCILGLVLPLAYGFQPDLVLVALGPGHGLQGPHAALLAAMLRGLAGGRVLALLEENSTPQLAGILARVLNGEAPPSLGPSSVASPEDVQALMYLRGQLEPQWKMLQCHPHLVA
For the next test, the system named is NCI-H460. Briefly: Cytotoxicity assay (SRB, 72 h) NCI-H460. In kind it is cell-based, Human. The note with it: Homo sapiens.
For the next test, the system named is Acetylated Tubulin. The experiment in a line: Western blot, acetylation of tubulin in NCI-H460 cells. In kind it is cell-based, Human. Conditions: 24 h; SN38 0.05 μM, SAHA 5 μM, 3b and 3d 0.125–0.2–0.5 μM. Here is the method:
(§1) The supernatant, containing the total proteins extracts, were transferred in new vials. The protein concentration was measured by Bradford Protein Assay. Equal amounts of proteins for each sample were then resolved by SDS-PAGE and loaded on 10–12% polyacrilamide gels. The proteins were then transferred on nitrocellulose membranes. Molecular weights were estimated based upon the relative migration with molecular weight protein markers.
(§2) The non-specific binding was blocked by incubation of membranes in TBS-tween (25 mM Tris, 150 mM NaCl, 0.1% Tween 20) with 5% nonfat dry milk (BIORAD, Milan) for 60 minutes. Subsequently, the membrane was incubated overnight with primary antibodies: anti-Histone H4 (Millipore, 1:500), anti-acetyl-H4 (Santa Cruz, 1:1000) anti-p21 (Santa Cruz, 1:1000), anti-acetyl-tubulin (abcam, 1:1000), anti-α-tubulin (Sigma, 1:5000), anti β-actin (Sigma, 1:5000) and anti-Topoisomerase 1 (Santa Cruz, 1:500). After three washes with TBST blots were incubated with HRP-coniugated secondary anti-mouse and anti-rabbit (Santa Cruz, 1:5000) 1 hour at room temperature. After three washes with TBST the blots were developed with ECL substrate (GE Healthcare) and chemiluminescence detected by ChemiDoc Imaging System (Biorad). The optical density of the protein bands detected by western blotting was normalized on α -tubulin levels and analyzed by ChemiDoc software (Biorad). […]
(A western blot detects proteins with antibodies after separation by electrophoresis.)

The next test deals with Acetylated Histone H4. Briefly: Western blot, acetylation of histone H4 in NCI-H460 cells. The note with it: 24 h; SN38 0.05 μM, SAHA 5 μM, 3b and 3d 0.125–0.2–0.5 μM. It is filed as cell-based, Human. Here is the method:
as §1, §2

The next test concerns A431. The experiment in a line: Cytotoxicity assay (SRB, 72 h) A431. In kind it is cell-based, Human. The note with it: Homo sapiens, A-431, read-out: IC50 ± SD A431.
For another test, the target named is HDAC1 (Homo sapiens, UniProt Q13547). Briefly: HDAC profiling HDAC1. The note with it: purified isoform, 10 concentrations from 10 μM, triplicate. In kind it is biochemical.
Sequence of HDAC1 (Q13547 whole entry, canonical isoform): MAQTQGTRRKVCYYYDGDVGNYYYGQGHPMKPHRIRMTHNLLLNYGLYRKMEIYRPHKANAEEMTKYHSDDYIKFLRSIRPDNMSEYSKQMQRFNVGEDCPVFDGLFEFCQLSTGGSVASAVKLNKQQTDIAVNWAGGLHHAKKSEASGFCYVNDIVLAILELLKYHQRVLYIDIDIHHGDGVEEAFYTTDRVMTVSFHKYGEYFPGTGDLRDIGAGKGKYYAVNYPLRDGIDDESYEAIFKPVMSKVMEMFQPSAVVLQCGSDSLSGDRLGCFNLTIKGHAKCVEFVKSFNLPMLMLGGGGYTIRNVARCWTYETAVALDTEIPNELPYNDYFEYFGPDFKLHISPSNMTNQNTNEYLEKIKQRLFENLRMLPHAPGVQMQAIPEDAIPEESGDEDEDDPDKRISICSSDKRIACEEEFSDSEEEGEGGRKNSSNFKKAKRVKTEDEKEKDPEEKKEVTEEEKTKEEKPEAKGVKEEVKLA
A further test relates to A2780-Dx. The experiment in a line: Cytotoxicity assay (SRB, 72 h) A2780-Dx. In kind it is cell-based, Human.
The next test deals with HeLa. The experiment in a line: Cytotoxicity assay (SRB, 72 h) HeLa. In kind it is cell-based, Human. Conditions: Homo sapiens, HeLa, read-out: IC50 ± SD HeLa.

Sequence of HDAC6 (Q9UBN7 whole entry, canonical isoform): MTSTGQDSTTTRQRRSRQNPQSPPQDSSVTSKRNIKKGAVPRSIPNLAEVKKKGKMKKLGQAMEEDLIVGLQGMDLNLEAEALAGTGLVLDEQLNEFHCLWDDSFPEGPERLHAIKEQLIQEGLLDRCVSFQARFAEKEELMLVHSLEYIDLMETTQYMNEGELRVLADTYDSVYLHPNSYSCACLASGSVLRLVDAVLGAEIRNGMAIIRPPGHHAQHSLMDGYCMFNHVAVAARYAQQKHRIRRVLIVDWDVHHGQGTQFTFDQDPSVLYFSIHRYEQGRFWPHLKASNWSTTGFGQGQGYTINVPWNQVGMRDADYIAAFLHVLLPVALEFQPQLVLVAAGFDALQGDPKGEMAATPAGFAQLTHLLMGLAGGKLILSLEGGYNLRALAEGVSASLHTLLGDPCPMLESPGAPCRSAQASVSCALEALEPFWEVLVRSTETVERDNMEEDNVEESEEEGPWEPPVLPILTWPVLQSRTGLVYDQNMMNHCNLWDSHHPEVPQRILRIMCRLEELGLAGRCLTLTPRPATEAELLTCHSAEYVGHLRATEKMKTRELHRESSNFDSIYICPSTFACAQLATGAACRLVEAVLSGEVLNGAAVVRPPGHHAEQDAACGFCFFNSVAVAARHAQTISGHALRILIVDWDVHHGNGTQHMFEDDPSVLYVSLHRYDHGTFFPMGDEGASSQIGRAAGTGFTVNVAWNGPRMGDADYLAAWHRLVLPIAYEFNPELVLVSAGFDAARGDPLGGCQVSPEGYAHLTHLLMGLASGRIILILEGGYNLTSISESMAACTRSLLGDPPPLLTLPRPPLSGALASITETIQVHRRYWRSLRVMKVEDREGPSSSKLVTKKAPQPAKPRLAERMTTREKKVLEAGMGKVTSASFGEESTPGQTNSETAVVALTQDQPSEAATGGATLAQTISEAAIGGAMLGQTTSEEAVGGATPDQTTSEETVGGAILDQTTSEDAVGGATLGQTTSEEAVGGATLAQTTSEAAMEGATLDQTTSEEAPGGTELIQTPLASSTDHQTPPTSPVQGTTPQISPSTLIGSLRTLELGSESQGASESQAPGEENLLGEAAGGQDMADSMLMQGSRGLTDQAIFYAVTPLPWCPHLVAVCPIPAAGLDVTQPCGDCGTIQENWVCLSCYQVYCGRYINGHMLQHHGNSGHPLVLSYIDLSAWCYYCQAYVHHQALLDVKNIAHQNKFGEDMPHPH

Take `CC[C@@]1(O)C(=O)OCc2c1cc1n(c2=O)Cc2c-1nc1ccccc1c2C=NOCCCCCC(=O)NO` [Compound 3b, 6-(camptothecin-7-ylmethyleneaminooxy)-hexanoic acid hydroxyamide]: the IC50 in the test on A2780 was 0.008 ± 0.002 µM; in the test on Capan 1 it was 0.006 ± 0.0007 µM; against HDAC6 it was 0.00387 µM; at HDAC2, 0.0762 µM; against HDAC10, 0.0999 µM; in the test with NCI-H460 (NCI-H460, 72 h, SRB assay, read-out: IC50 ± SD NCI-H460), 0.023 ± 0.004 µM. Besides, the IC50 in the test on A431 amounted to 0.004 ± 0.001 µM; against HDAC1 it was 0.043 µM; in the test with A2780-Dx (Homo sapiens, A2780/DX, 72 h, SRB assay, multidrug-resistant ovarian carcinoma, read-out: IC50 ± SD A2780-Dx) it was 0.27 ± 0.07 µM; in the test on HeLa, 0.16 ± 0.04 µM. The 80% effect level in the test on NCI-H460 (NCI-H460 cells) (IC80) was put at 0.5 µM. In the test with Acetylated Tubulin, the “accumulation of acetylated tubulin” value is recorded as “less potent than 3d on both targets”. Moreover, the “accumulation of acetylated histone H4” value with Acetylated Histone H4 is recorded as “less potent than 3d on both targets, particularly on H4”. Moreover, the “RI (Resistance Index)” value in the test with A2780-Dx (A2780-Dx versus A2780) was determined as 31.7.
